molecular target: recombinant human DPP-4 (Homo sapiens, UniProt P27487); assay: recombinant human DPP-4 fluorogenic substrate cleavage assay; type: biochemical; details: compound 10 uM; substrate (H-Ala-Pro)-2-Rh110 10 μM; 1 hour pre-incubation, room temperature
Protocol: For compound screening, the assay employed measures the activity of recombinant human DPP-4 to cleave the synthetic fluorogenic substrate (H-Ala-Pro)-2—Rh110. The reaction is run in 384-well plates. Compound solutions in assay buffer are pre-incubated with the human recombinant DPP-4 and the reaction is initiated by the addition of the substrate. The product of the reaction is quantified by measuring the fluorescence intensity using Tecan Ultraplate reader. For each compound concentration tested, the percent of inhibition is calculated.
For the determination of IC50 and/or % of inhibition values, the assay is performed at room temperature in 384-well plates using a TECAN Ultra plate reader. Total assay volume is 30 μl. Test compounds are dissolved in 90% (v/v) DMSO/water and diluted in water containing 0.05% (w/v) CHAPS to 3-times the desired assay concentration. For the assay, 10 μl water/CHAPS (±test compound) are added per well, followed by the addition of 10 μl hDPP4 solution (diluted with 1.5× assay buffer, i.e. 37.5 mM Tris/HCl, pH 7.4, 210 mM NaCl, 15 mM KCl, and 0.05% (w/v) CHAPS). The final assay concentrations are […] for hDPP4 according to the enzyme concentrations determined by the Bradford method. After 1 hour of pre-incubation at room temperature, the reaction is started by the addition of 10 μl substrate solution (substrate dilutes in 1.5× assay buffer, final substrate concentration is 10 μM). The effect of the compound on the enzymatic activity is obtained from the linear progression curves and determined from two readings, the first one taken directly after the addition of substrate (t=0 min) and the second one after 1 hour (t=60 min). The apparent inhibition constant, IC50, is calculated from the plot of percentage of inhibition vs. inhibitor concentration using non-linear regression analysis software (XLfit, Vers. 4.0; ID Business Solution Ltd., Guildford, Surrey, UK).

recombinant human DPP-4, sequence (P27487 whole entry): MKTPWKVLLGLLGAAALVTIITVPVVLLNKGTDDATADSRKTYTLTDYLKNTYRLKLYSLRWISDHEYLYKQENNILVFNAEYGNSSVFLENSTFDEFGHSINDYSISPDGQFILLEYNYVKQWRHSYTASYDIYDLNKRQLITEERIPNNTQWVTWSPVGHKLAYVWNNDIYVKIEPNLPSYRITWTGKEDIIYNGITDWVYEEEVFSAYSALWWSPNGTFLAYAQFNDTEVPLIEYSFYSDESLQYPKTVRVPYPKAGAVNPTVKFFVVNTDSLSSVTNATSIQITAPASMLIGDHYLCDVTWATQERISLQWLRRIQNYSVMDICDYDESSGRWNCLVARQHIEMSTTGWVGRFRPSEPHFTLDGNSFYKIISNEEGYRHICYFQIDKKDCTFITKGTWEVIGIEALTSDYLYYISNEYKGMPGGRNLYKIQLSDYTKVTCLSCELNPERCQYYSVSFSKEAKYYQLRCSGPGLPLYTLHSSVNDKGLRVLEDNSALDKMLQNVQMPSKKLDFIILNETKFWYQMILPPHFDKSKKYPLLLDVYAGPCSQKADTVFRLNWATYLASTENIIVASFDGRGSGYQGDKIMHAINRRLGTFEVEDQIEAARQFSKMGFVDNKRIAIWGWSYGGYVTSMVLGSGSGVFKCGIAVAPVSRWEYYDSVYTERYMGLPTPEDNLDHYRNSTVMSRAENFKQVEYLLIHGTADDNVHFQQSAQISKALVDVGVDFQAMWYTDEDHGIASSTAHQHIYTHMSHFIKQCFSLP

| SMILES | % Inhib at 10 uM |
| --- | --- |
| N[C@@H](CCN1CC[C@H](c2ccc(F)cc2)C1)Cc1cc(F)c(F)cc1F [Compound 29] | 99.4% |

same assay, conditions: compound 10 uM; substrate (H-Ala-Pro)-2-Rh110 10 μM; 1 hour pre-incubation, room temperature; read-out: % Inhib at 10 uM

| SMILES | inhibition at 10 µM |
| --- | --- |
| N[C@@H](CCN1CCC(c2ccc(C(F)(F)F)cc2)C1)Cc1cc(F)c(F)cc1F (stereo partly drawn) [Compound 20, (R)-1-(2,4,5-Trifluoro-benzyl)-3-[3-(4-trifluoromethyl-phenyl)-pyrrolidin-1-yl]-propylamine] | 99.1% |
| Cc1ccc(C2CCCN(CC[C@H](N)Cc3cc(F)c(F)cc3F)C2)cc1 (stereo partly drawn) [Compound 8, (R)-3-(3-p-Tolyl-piperidin-1-yl)-1-(2,4,5-trifluoro-benzyl)-propylamine] | 99.6% |
| Cc1cccc(C2CCCN(CC[C@H](N)Cc3cc(F)c(F)cc3F)C2)c1 (stereo partly drawn) [Compound 9, (R)-3-(3-m-Tolyl-piperidin-1-yl)-1-(2,4,5-trifluoro-benzyl)-propylamine] | 99.7% |
| COc1ccccc1C1CCCN(CC[C@H](N)Cc2cc(F)c(F)cc2F)C1 (stereo partly drawn) [Compound 4, (R)-3-[3-(2-Methoxy-phenyl)-piperidin-1-yl]-1-(2,4,5-trifluoro-benzyl)-propylamine] | 98.9% |
| N[C@@H](CCN1CCCC(c2ccc(F)cc2)C1)Cc1cc(F)c(F)cc1F (stereo partly drawn) [Compound 11, (R)-3-[3-(4-Fluoro-phenyl)-piperidin-1-yl]-1-(2,4,5-trifluoro-benzyl)-propylamine] | 99.6% |
| N[C@@H](CCN1CCCC(c2ccc3c(c2)OCO3)C1)Cc1cc(F)c(F)cc1F (stereo partly drawn) [Compound 27, (R)-3-(3-Benzo[1,3]dioxol-5-yl-piperidin-1-yl)-1-(2,4,5-trifluoro-benzyl)-propylamine] | 99.7% |
| N[C@@H](CCN1CCCCC1)Cc1cc(F)c(F)cc1F [Compound 24, (R)-3-Piperidin-1-yl-1-(2,4,5-trifluoro-benzyl)-propylamine] | 99.3% |
| COc1cccc(C2CCN(CC[C@H](N)Cc3cc(F)c(F)cc3F)C2)c1 (stereo partly drawn) [Compound 18, (R)-3-[3-(3-Methoxy-phenyl)-pyrrolidin-1-yl]-1-(2,4,5-trifluoro-benzyl)-propylamine] | 99.2% |
| N[C@@H](CCN1CCC(c2ccccc2F)C1)Cc1cc(F)c(F)cc1F (stereo partly drawn) [Compound 23, (R)-3-[3-(2-Fluoro-phenyl)-pyrrolidin-1-yl]-1-(2,4,5-trifluoro-benzyl)-propylamine] | 99.5% |
| N[C@@H](CCN1CCCC(c2cccc(F)c2)C1)Cc1cc(F)c(F)cc1F (stereo partly drawn) [Compound 12, (R)-3-[3-(3-Fluoro-phenyl)-piperidin-1-yl]-1-(2,4,5-trifluoro-benzyl)-propylamine] | 99.7% |
| N[C@@H](CCN1CCC(c2ccccc2)C1)Cc1cc(F)c(F)cc1F (stereo partly drawn) [Compound 14, (R)-3-(3-Phenyl-pyrrolidin-1-yl)-1-(2,4,5-trifluoro-benzyl)-propylamine] | 99.6% |
| N[C@@H](CCN1CCCC1)Cc1cc(F)c(F)cc1F [Compound 28, (R)-3-Pyrrolidin-1-yl-1-(2,4,5-trifluoro-benzyl)-propylamine] | 99.1% |
| Cc1ccccc1C1CCCN(CC[C@H](N)Cc2cc(F)c(F)cc2F)C1 (stereo partly drawn) [Compound 10, (R)-3-(3-o-Tolyl-piperidin-1-yl)-1-(2,4,5-trifluoro-benzyl)-propylamine] | 99.4% |
| COCC1CCCN(CC[C@H](N)Cc2cc(F)c(F)cc2F)C1 (stereo partly drawn) [Compound 26, (R)-3-(3-Methoxymethyl-piperidin-1-yl)-1-(2,4,5-trifluoro-benzyl)-propylamine] | 99.5% |
| COc1ccc(C2CCN(CC[C@H](N)Cc3cc(F)c(F)cc3F)C2)cc1 (stereo partly drawn) [Compound 17, (R)-3-[3-(4-Methoxy-phenyl)-pyrrolidin-1-yl]-1-(2,4,5-trifluoro-benzyl)-propylamine] | 98.4% |
| CC1CCCN(CC[C@H](N)Cc2cc(F)c(F)cc2F)C1 (stereo partly drawn) [Compound 25, (R)-3-(3-Methyl-piperidin-1-yl)-1-(2,4,5-trifluoro-benzyl)-propylamine] | 98.6% |
| N[C@@H](CCN1CCCC(c2ccccc2C(F)(F)F)C1)Cc1cc(F)c(F)cc1F (stereo partly drawn) [Compound 7, (R)-1-(2,4,5-Trifluoro-benzyl)-3-[3-(2-trifluoromethyl-phenyl)-piperidin-1-yl]-propylamine] | 98.3% |
| N[C@@H](CCN1CCC(c2ccc(F)cc2)C1)Cc1cc(F)c(F)cc1F (stereo partly drawn) [Compound 21, (R)-3-[3-(4-Fluoro-phenyl)-pyrrolidin-1-yl]-1-(2,4,5-trifluoro-benzyl)-propylamine] | 99.6% |
| N[C@@H](CCN1CCC(c2cccc(Cl)c2)C1)Cc1cc(F)c(F)cc1F (stereo partly drawn) [Compound 15, (R)-3-[3-(3-Chloro-phenyl)-pyrrolidin-1-yl]-1-(2,4,5-trifluoro-benzyl)-propylamine] | 99.3% |
| COc1ccc(C2CCCN(CC[C@H](N)Cc3cc(F)c(F)cc3F)C2)cc1 (stereo partly drawn) [Compound 2, (R)-3-[3-(4-Methoxy-phenyl)-piperidin-1-yl]-1-(2,4,5-trifluoro-benzyl)-propylamine] | 99.5% |
| N[C@@H](CCN1CCC(c2ccccc2Cl)C1)Cc1cc(F)c(F)cc1F (stereo partly drawn) [Compound 16, (R)-3-[3-(2-Chloro-phenyl)-pyrrolidin-1-yl]-1-(2,4,5-trifluoro-benzyl)-propylamine] | 99.5% |
| COc1ccccc1C1CCN(CC[C@H](N)Cc2cc(F)c(F)cc2F)C1 (stereo partly drawn) [Compound 19, (R)-3-[3-(2-Methoxy-phenyl)-pyrrolidin-1-yl]-1-(2,4,5-trifluoro-benzyl)-propylamine] | 99.2% |
| N[C@@H](CCN1CCC(c2cccc(F)c2)C1)Cc1cc(F)c(F)cc1F (stereo partly drawn) [Compound 22, (R)-3-[3-(3-Fluoro-phenyl)-pyrrolidin-1-yl]-1-(2,4,5-trifluoro-benzyl)-propylamine] | 99.6% |
| N[C@@H](CCN1CCCC(c2ccccc2)C1)Cc1cc(F)c(F)cc1F (stereo partly drawn) [Compound 1, (R)-3-(3-Phenyl-piperidin-1-yl)-1-(2,4,5-trifluoro-benzyl)-propylamine] | 99.9% |
| N[C@@H](CCN1CCCC(c2cccc(C(F)(F)F)c2)C1)Cc1cc(F)c(F)cc1F (stereo partly drawn) [Compound 6, (R)-1-(2,4,5-Trifluoro-benzyl)-3-[3-(3-trifluoromethyl-phenyl)-piperidin-1-yl]-propylamine] | 98.9% |
| COc1cccc(C2CCCN(CC[C@H](N)Cc3cc(F)c(F)cc3F)C2)c1 (stereo partly drawn) [Compound 3, (R)-3-[3-(3-Methoxy-phenyl)-piperidin-1-yl]-1-(2,4,5-trifluoro-benzyl)-propylamine] | 97.9% |
| N[C@@H](CCN1CCCC(c2ccc(C(F)(F)F)cc2)C1)Cc1cc(F)c(F)cc1F (stereo partly drawn) [Compound 5, (R)-1-(2,4,5-Trifluoro-benzyl)-3-[3-(4-trifluoromethyl-phenyl)-piperidin-1-yl]-propylamine] | 99.3% |

Source: patent US20100076024A1, “Novel Compounds as Serine Protease Inhibitors” (priority 2007, published 2010)
